In patent EP4596537A1, “NOVEL FLUORENE DERIVATIVE COMPOUND AND USE THEREOF” (JD Bioscience Inc., priority 2022, dated 2024):

tested on: PDHE1α S293; assay: In vitro PDH S293 phosphorylation inhibition (Western blot) in HEK293 cells; format: cell-based, human; conditions: 5 hours, at 1 µM
Procedure: HEK293 cells, which are human embryonic kidney cells, were seeded at a density of 2 × 10^6 in a 60 mm dish, and cultured for 24 hours. After replacing the medium with a medium comprising 0.5% FBS, the compounds prepared according to Examples 1 to 54 were treated at various concentrations. 5 hours later, the cells were scraped off and collected into a 15 mL conical tube and centrifuged at 1500 rpm for 10 minutes. The supernatant was discarded, the resultant was washed with 1× PBS, and transferred to a 1.5 mL e-tube, followed by centrifugation at 10,000 rpm for 5 minutes. The supernatant was discarded again, a lysis buffer was added, and the cells were lysed on ice for 30 minutes. The cells were vortexed every 10 minutes to completely lyse, and centrifuged again at 10,000 rpm for 15 minutes at 4°C, and the supernatant was collected. The protein in the supernatant was quantified using BCA technique, and the sample buffer was added to 20 µg of protein and allowed to react at 70°C for 5 minutes. The expression of PDHE1α S232, S293, S300, and total PDHE1α proteins was detected by Western blot, and the resulting PDH S293 phosphorylation inhibition is shown in Table 6. […]

With “N'-(3-chloro-5-(trifluoromethyl)pyridin-2-yl)-2-(4-(2-fluoro-9-hydroxy-9-(trifluoromethyl)-9H-fluoren-4-yl)-1H-pyrazol-1-yl)propanehydrazide [Example 32]” as the molecule, how does the “PDH S293 phosphorylation inhibition” value read?
The value was “++ (50% or more of PHDE1α S293 expression inhibition rate at 1 µM)”.

How did the “PDH S293 phosphorylation inhibition” value turn out when “N'-(3-chloro-5-(trifluoromethyl)pyridin-2-yl)-2-(4-(9-hydroxy-2-methoxy-9-(trifluoromethyl)-9H-fluoren-4-yl)-1H-pyrazol-1-yl)propanehydrazide [Example 33]” was run?
Its value is “++ (50% or more of PHDE1α S293 expression inhibition rate at 1 µM)”.

same assay, conditions: Homo sapiens, 5 hours

How did the inhibition at 1 µM turn out when `CC(C)C(C(=O)NNc1ccc(F)cc1)n1cc(-c2cc(F)cc3c2-c2ccccc2C3(O)C(F)(F)F)cn1` (stereo not shown) [Example 44, 2-(4-(2-fluoro-9-hydroxy-9-(trifluoromethyl)-9H-fluoren-4-yl)-1H-pyrazol-1-yl)-N'-(4-fluorophenyl)-3-methylbutanehydrazide] was run?
The inhibition at 1 µM was at least 50%.

How did the inhibition at 1 µM turn out when `CC(C)CC(C(=O)NNc1ccc(F)cc1)n1cc(-c2cc(F)cc3c2-c2ccccc2C3(O)C(F)(F)F)cn1` (stereo not shown) [Example 45, 2-(4-(2-fluoro-9-hydroxy-9-(trifluoromethyl)-9H-fluoren-4-yl)-1H-pyrazol-1-yl)-N'-(4-fluorophenyl)-4-methylpentanehydrazide] was run?
The inhibition at 1 µM was at least 50%.

Which inhibition at 1 µM does the source give for `O=C(NNc1ccc(F)cc1)C(CC1CCCCC1)n1cc(-c2cc(F)cc3c2-c2ccccc2C3(O)C(F)(F)F)cn1` (stereo not shown) [Example 46, 3-cyclohexyl-2-(4-(2-fluoro-9-hydroxy-9-(trifluoromethyl)-9H-fluoren-4-yl)-1H-pyrazol-1-yl)-N'-(4-fluorophenyl)propanehydrazide] here?
Its inhibition at 1 µM is at least 50%.

With `CC(C)(C(=O)NNc1ccc(F)cc1)n1cc(-c2cc(F)cc3c2-c2ccccc2C3(O)C(F)(F)F)cn1` (stereo not shown) [Example 47, 2-(4-(2-fluoro-9-hydroxy-9-(trifluoromethyl)-9H-fluoren-4-yl)-1H-pyrazol-1-yl)-N'-(4-fluorophenyl)-2-methylpropanehydrazide] as the molecule, how does the inhibition at 1 µM read?
Its inhibition at 1 µM is at least 50%.

For `C[C@@H](C(=O)NNc1ccc(F)cc1)n1cc(-c2cc(F)cc3c2-c2ccccc2[C@@]3(O)C(F)(F)F)cn1` [Example 48, (S)-2-(4-((S)-2-fluoro-9-hydroxy-9-(trifluoromethyl)-9H-fluoren-4-yl)-1H-pyrazol-1-yl)-N'-(4-fluorophenyl)propanehydrazide], which inhibition at 1 µM is on record?
The inhibition at 1 µM was at least 50%.

`C[C@H](C(=O)NNc1ccc(F)cc1)n1cc(-c2cc(F)cc3c2-c2ccccc2[C@]3(O)C(F)(F)F)cn1` [Example 49, (R)-2-(4-((R)-2-fluoro-9-hydroxy-9-(trifluoromethyl)-9H-fluoren-4-yl)-1H-pyrazol-1-yl)-N'-(4-fluorophenyl)propanehydrazide] was tested. Which inhibition at 1 µM did it give?
Its inhibition at 1 µM is at least 50%.

`C[C@@H](C(=O)NNc1ccc(F)cc1)n1cc(-c2cc(F)cc3c2-c2ccccc2[C@]3(O)C(F)(F)F)cn1` [Example 50, (S)-2-(4-((R)-2-fluoro-9-hydroxy-9-(trifluoromethyl)-9H-fluoren-4-yl)-1H-pyrazol-1-yl)-N'-(4-fluorophenyl)propanehydrazide] was tested. Which inhibition at 1 µM did it give?
Its inhibition at 1 µM is at least 50%.

Which inhibition at 1 µM does the source give for `C[C@H](C(=O)NNc1ccc(F)cc1)n1cc(-c2cc(F)cc3c2-c2ccccc2[C@@]3(O)C(F)(F)F)cn1` [Example 51, (R)-2-(4-((S)-2-fluoro-9-hydroxy-9-(trifluoromethyl)-9H-fluoren-4-yl)-1H-pyrazol-1-yl)-N'-(4-fluorophenyl)propanehydrazide] here?
Its inhibition at 1 µM is at least 50%.

For `COc1cc(-c2cnn(C(C)C(=O)NN3CCCCC3)c2)c2c(c1)C(O)(C(F)(F)F)c1ccccc1-2` (stereo not shown) [Example 52, 2-(4-(9-hydroxy-2-methoxy-9-(trifluoromethyl)-9H-fluoren-4-yl)-1H-pyrazol-1-yl)-N-(piperidin-1-yl)propanamide], which inhibition at 1 µM is on record?
Its inhibition at 1 µM is at least 50%.

Which inhibition at 1 µM does the source give for `CC(C(=O)NN1CCCCC1)n1cc(-c2cc(F)cc3c2-c2ccccc2C3(O)C(F)(F)F)cn1` (stereo not shown) [Example 53, 2-(4-(2-fluoro-9-hydroxy-9-(trifluoromethyl)-9H-fluoren-4-yl)-1H-pyrazol-1-yl)-N-(piperidin-1-yl)propanamide] here?
The inhibition at 1 µM was at least 50%.

How did the inhibition at 1 µM turn out when `CC(C(=O)NN1CCCCCC1)n1cc(-c2cc(F)cc3c2-c2ccccc2C3(O)C(F)(F)F)cn1` (stereo not shown) [Example 54, N-(azepan-1-yl)-2-(4-(2-fluoro-9-hydroxy-9-(trifluoromethyl)-9H-fluoren-4-yl)-1H-pyrazol-1-yl)propanamide] was run?
Its inhibition at 1 µM is at least 50%.
